Patent publication US12090157B2, “Non-invasive pet imaging of CDK4/6 activation in cancer” (New York University, priority 2020, dated 2024)
Values joined by “and” are separate entries in the source; they are usually repeats but may differ in a detail not shown here. Identical values can stand only once. Like-named read-outs stand apart in the source and are kept apart here. One block for each molecule: values may come before it.

Assays:
In vitro stability = assay type: in vitro ADME; settings: after 4 h of incubation
Blood half-life = assay type: in vivo, mouse; settings: mice, single bolus intravenous injection
Procedure: The blood half-life of ^18F-CDKi was calculated by measuring the activity of blood samples collected at different time points p.i. (5, 15, 30, 45, 60, 90 and 120 minutes). Female nude mice (n=3) were injected via lateral tail vein with ^18F-CDKi (and blood samples obtained by retro-orbital bleed using tared capillary tubes. Samples were weighed, and activity was measured by γ-counter. The blood half-life was calculated using Graph Prism 7 (GraphPad Software, La Jolla, CA) using a two-phase decay least squares fitting method and expressed as % ID/g.

MCF-7 xenografts = test: MicroPET/CT imaging and ex-vivo biodistribution in MCF-7 bearing mice; design: species or system mouse; settings: for kidney concentration / liver concentration / small intestines concentration: 2 h post injection
Procedure: Female athymic nude CrTac:NCr-Foxnlnu mice (n=35) were purchased from Taconic Laboratories (Hudson, NY). 20 mice received subcutaneous injections with 2×10^6 human MCF-7 cancer cells in Matrigel® (BD Biosciences, San Jose, CA) into each right shoulder and were allowed to grow for approximately two months until the tumors reached ˜10 mm in diameter. All mice were supplemented with 60 days 0.72 mg slow release estradiol pellets purchased from Innovative Research of America (IRA, Sarasota, FL) implanted in the left flank. Mice were anesthetized (isoflurane 1.5%, 2 L/min medical air) during tumor implantation and microPET imaging.
Twelve subcutaneous MCF-7 implanted athymic nude mice were divided in two groups (blocked and unblocked) and administered with ^18F-CDKi (˜7.4 mBq) via tail vein injection. Approximately 5 min prior to PET acquisition, mice were anesthetized by inhalation of a mixture of isoflurane (Baxter Healthcare, Deerfield, IL, USA; 2% isoflurane, 2 L/min medical air) and positioned on the scanner bed. Anesthesia was maintained using a 1% isoflurane/O2 mixture. PET data for each mouse was recorded and acquired at 30 min p.i and at 120 min p.i. Blocking studies were performed after a pre-injection of 50-fold excess palbociclib (8.4 nmol, 3.8 μg, 30 min before). The duration of the microPET/CT imaging sessions was 20 min each.
Biodistribution of ^18F-CDKi was performed in subcutaneous MCF-7 bearing athymic nude mice (n=8). Mice were divided (n=4/group) in blocked and unblocked (50-fold excess palbociclib, 30 minutes before) and administered with ^18F-CDKi via tail vein injection (1.85 mBq). At 120 minutes post injection of the radioligand, the mice were sacrificed and organs of interest were collected. Organs were weighed, and activity was measured with a WIZARD^2 automatic γ-counter (PerkinElmer, Boston, MA). The radiopharmaceutical uptake was expressed as a percentage of injected dose per gram (% ID/g) using the following formula: [(activity in the target organ/grams of tissue)/injected dose]×100%.

MCF-7 cells [1] = test: In vitro cell-associated uptake of ^18F-CDKi; assay type: cell-based, human
Procedure: MCF-7 cells were seeded in a 6 well plates (5×10^6 cells 24 hours prior the experiment). The next day, ^18F-CDKi was added alone or together with a 50-fold excess Palbociclib and incubated at 37° C. for 1 h. After 1 h, cells were firstly washed three times with PBS, then lysed with 1N NaOH, and finally media and cells counted in a γ-counter. The percentage of bound/unbound radioligand at each time point was measured in triplicate and plotted as a function of time.

[2] = Octanol/water partition coefficient; assay type: physicochemical; settings: 1-octanol / phosphate buffered saline pH 7.4
Procedure: The Chemical Hydrophobicity Indices (CHI) were measured using a previously developed procedure (Valkó, Journal Chromatogr A. 2004; 1037:299-310, Valkó et al., Anal Chem. 1997; 69:2022-2029. Briefly, reverse phase HPLC was used to measure the retention times of a set of standards with known CHI. A standard curve was then created to calculate the CHI of […] based on the HPLC retention time. The lipophilicity of the ^18F-CDKi was acquired by adding 0.09 mBq to a mixture of 0.5 mL of 1-octanol and 0.5 mL of 25 mM phosphate buffered saline (pH 7.4) and mixed for 5 minutes. Then, the mixture was centrifuged at 15.000 rpm for 5 minutes. 100 μL samples were obtained from organic and aqueous layers, and the radioactivity of the samples were measured in a WIZARD^2 automatic γ-counter. The experiment was performed in triplicate, and the resulting log Pow was calculated as the mean±SD.

CDK4/6 = test: IC50 binding affinity, competitive ATP quantitative assay (CellTiter-Glo, MCF-7 cells); assay type: cell-based, human; settings: for binding affinity to CDK4/6: FIG. 2A legend
Procedure: (§1) IC50 values were determined using a competitive ATP quantitative assay. […]. MCF-7 cells were cultured at 37° C. for 4 h. Then, ^19F-CDKi or vehicle was added at different concentration and incubated at 37° C. for 96 h. Cell viability was then assessed using CellTiter-Glo® Luminescent Assay (Promega, Madison, WI), used accordingly to manufacturer's guidelines. Cell viability inhibition (%) was calculated according to the formula [1−(mean luminosity of treated sample/mean luminosity of vehicle control)]×100. IC50 for growth or viability inhibition was calculated using Graph Prism 8 (GraphPad Software Inc, La Jolla, CA). We used ^18F-CDKi and palbobiclib for competitive displacement studies. MCF-7 cells were seeded in a 12 wells plate (1×10^5 cells 24 h prior the experiment). The next day, a fixed concentration of ^18F-CDKi (50 nM) was co-incubated with linearly doubling concentrations of palbociclib (from 0 to 500 nM) at 37° C. for 2 h. Then, the cells were washed twice with PBS, lysed with 1N NaOH, and the activity (CPM) measured in a γ-counter for bound ^18F radioligand. The percentage of bound radioligand was finally plotted against palbociclib concentration. Competitive displacement curves were fitted using Graph Prism 8 (GraphPad Software Inc, La Jolla, CA).

MCF-7 cells [3] = test: Competitive displacement of ^18F-CDKi by palbociclib in MCF-7 cells; assay type: cell-based, human; settings: 50 nM ^18F-CDKi, palbociclib 0 to 500 nM, 2 h, read-out: inhibition effect, competitive displacement of palbociclib
Procedure: as §1

[4] = first of two values joined by 'or'
[5] = second of two values joined by 'or'

- in vitro stability, parent compound intact (In vitro stability): more than 98%
- in vivo blood half-life t1/2(weighted) (Blood half-life): 7.03 min and 7 min
- kidney concentration (MCF-7 xenografts; [4]): 7.99±0.7 % ID/g
- liver concentration (MCF-7 xenografts; [4]): 6±0.5 % ID/g
- small intestines concentration (MCF-7 xenografts; [4]): 9.6±2.7 % ID/g
- kidney concentration (MCF-7 xenografts; [5]): 9.6±0.98 % ID/g
- liver concentration (MCF-7 xenografts; [5]): 6.77±1.15 % ID/g
- small intestines concentration (MCF-7 xenografts; [5]): 10±1.19 % ID/g
- tumor-to-blood ratio (MCF-7 xenografts; MCF-7 bearing mice, 2 h p.i.): > 5
- tumor-to-bone ratio (MCF-7 xenografts; MCF-7 bearing mice, 2 h p.i.): > 10
- tumor-to-muscle ratio (MCF-7 xenografts; MCF-7 bearing mice, 2 h p.i.): > 15
- tumor uptake after injection of palbociclib prior to the radiotracer (MCF-7 xenografts; MCF-7 bearing mice, in words): negligible
- tumor uptake, blocked (MCF-7 xenografts; MCF-7 xenografts, 50-fold excess of cold palbociclib pre-injected): ~0.3 % ID/g
- tumor uptake (MCF-7 xenografts; MCF-7 xenografts, ^18F-CDKi alone, 2 h p.i.): ~4 % ID/g
- clearance route (MCF-7 xenografts; PET imaging and biodistribution, mice): hepatobiliary route
- octanol/water phase partition coefficient (log DO/W) [2]: 1.91±0.24
- logD ([2]; read-out: octanol/water phase partition coefficient (log DO/W)): 1.91 ± 0.24
- IC50 (CDK4/6; FIG. 2A, read-out: targeting affinity to CDK4/6): ~0.013 µM
- IC50 against both CDK4 and CDK6 kinases (CDK4/6; in words): single digit nanomolar
- IC50 (CDK4/6; in words, similar to the parent compound palbociclib): nanomolar range
Structure (SMILES): CC(=O)c1c(C)c2cnc(Nc3ccc(N4CCN(C(=O)c5ccc([18F])cc5)CC4)cn3)nc2n(C2CCCC2)c1=O [^18F-CDKi]
- cell uptake blocked by excess of cold, unlabeled palbociclib (MCF-7 cells [1]): > 98%
- maximum intracellular concentration (MCF-7 cells [1]; 10 minutes post incubation): ~65%
- tracer uptake when co-incubated with a molar excess of Palbociclib (MCF-7 cells [1]; blocked): < 5%
- binding affinity to CDK4/6 (CDK4/6; in words): nanomolar

- IC50 (MCF-7 cells [3]): ~0.018 µM
Structure (SMILES): CC(=O)c1c(C)c2cnc(Nc3ccc(N4CCN(C(=O)c5ccc(F)cc5)CC4)cn3)nc2n(C2CCCC2)c1=O [^19F-CDKi]
- binding affinity to CDK4/6 (CDK4/6; in words): nanomolar
